Test results taken from US20260263421A1, “Method of Mitigating Radiation Injury with Geranylgeranyl Transferase Inhibitors” (BioVentures, LLC, priority 2022, published 2026).

Tests used:
[1] = system: small intestine of male C57BL/6J mice after 12 Gy PBI; test: 12 Gy γ-ray partial body irradiation (PBI) mouse model, intestinal injury and body weight at 2 weeks; assay type: in vivo
Source text: In addition, GGTi-298 (commercially available, MedChemExpress, Monmouth Junction, NJ) mitigated adverse effects of 12 Gy γ-ray PBI on villus height, crypt depth and crypt width. […] This bacterium is inversely associated with obesity, diabetes, inflammation and metabolic disorders. Lastly, PBI-induced increases in the percentage of Turicibacter and Clostridium species were mitigated by GGTi-2133. Several Clostridium species are known to be pathogenic, while an increase in Turicibacter depletes CD8+ lymphocytes in the gut, which can adversely affect gut immune function.
Data are represented as mean+/−standard deviation (SD; n=5 to 8 mice per group). “PBI” refers to partial body irradiation, and “Sham” refers to no PBI. The notations “a & b” refer to statistically significant difference from sham-irradiation and PBI, respectively. […] Both sham-irradiated mice and the PBI group received intraperitoneal administration of vehicle. […]
FIGS. 5A-5D are photomicrographs showing olfactomedin 4 (OLFM4) staining in the crypts of sham irradiated vehicle treated mice (FIGS. 5A), 12 Gy PBI plus vehicle treated mice (FIGS. […] 5D). Colors represent staining intensities: yellow (dark), red (medium), and green (weak). FIG. 5E is a bar graph showing the average staining intensity for dark, medium, and weak immunoreactivity obtained by analyzing 10 randomly selected crypts under 100× magnification from each mouse. Data are presented as mean+/−SD (n=5 to 8). The notation “a & b” refer to statistically significant difference from sham and PBI, respectively.
FIG. 6A is an H&E stained small intestinal section (20× magnification) to indicate how the villus height, crypt depth, and crypt width were measured with computerized analysis. […] Data are represented as mean+/−SD. The notation “a & b” refer to statistically significant difference from sham and PBI, respectively. Both sham-irradiated mice and the PBI group received intraperitoneal administration of vehicle.
Villus height and crypt depth were measured in 30 randomly selected villi and crypts (20× magnification), MSA was measured in 5 randomly selected areas (20× magnification), and enterocyte length and the length of their nucleus were measured in 3 enterocytes/villus in 10 villi (100× magnification) for each mouse.
Neutrophils and lymphocytes were scored under 40× magnification. Macrophages were scored in 30 villi under 100× magnification.
GGTi-2133 treatment increases the number of intestinal proliferating cells after PBI: Two proliferation markers (PCNA and Ki-67) were used. […] Cells were scored under 40× magnification.
Cells were scored under 20× magnification.
GGTi-2133 increases the expression of intestinal stem cell marker olfactomedin 4 (OLFM4) after PBI: The inventors assayed OLFM4 protein with immunohistochemistry and computerized image analysis to classify the immunoreactive regions as “dark,” “medium,” or “weak” based on staining intensity.
GGTi-298 treatment attenuates intestinal structural damage following PBI: In order to ensure another formulation of GGTi provides similar mitigation against intestinal damage following PBI, the inventors used GGTi-298 (MedChemExpress). […] Villus height, and crypt depth and width were measured in 30 randomly selected villi and crypts (20× magnification) for each mouse.

[2] = system: small intestine crypts of male C57BL/6J mice after 12 Gy PBI; test: Surviving crypt assay (PCNA) in small intestine on day 3.5 after 12 Gy PBI; assay type: in vivo, mouse; details: 2.5 mg/kg i.p. at 24 h and 72 h, jejunum day 3.5, vs PBI plus vehicle
Description: FIGS. 8A-8C are photomicrographs of small intestine sections stained for Proliferating Cell Nuclear Antigen (PCNA) in sham-irradiated vehicle treated mice (FIGS. 8A), 12 Gy PBI plus vehicle treated mice (FIG. 8B), and mice treated with 12 Gy PBI and 2.5 mg/kg GGTi-2133 on (FIG. 8C). Cross-sections from three different mice are shown in each of FIG. 8A, FIG. 8B, and FIG. 8C. Each mouse received two intraperitoneal injections of either vehicle or 2.5 mg/kg GGTi: the first injection was administered 24 hours after PBI and the second one was administered 72 hours after irradiation. Intestinal tissue was harvested 84 hours after irradiation. FIG. 8D is a bar graph showing the average number of surviving crypts from two intestinal cross sections that were used for data analysis. Crypts were scored under 20× magnification. Data are represented as mean+/−SD (n=8 animals per group). The notation “a & b” refer to statistically significant difference from sham and PBI, respectively.
GGTi-2133 treatment enhances surviving crypt number on day 3.5 after PBI: Male C57BL/6J mice were exposed to 12 Gy PBI and administered GGTi-2133 (2.5 mg/kg) at 24 hours and 72 hours after irradiation. A specimen of the jejunum was collected on day 3.5 after irradiation. The presence of more than five PCNA positive cells grouped together in a crypt was recorded as a surviving crypt. […]

[3] = system: cecal content microbiome of male C57BL/6J mice; test: Microbiome analysis of cecal content on day 3.5 after 12 Gy PBI; assay type: in vivo, mouse; details: 2.5 mg/kg at 24 and 72 h
Description: FIGS. 9A-9C are pie charts showing the distribution of different bacterial strains in the cecal content of sham-irradiated vehicle treated mice (FIGS. 9A), 12 Gy PBI plus vehicle treated mice (FIG. 9B), and mice treated with […] and 2.5 mg/kg GGTi-2133 in two administrations (FIG. 9C).
GGTi-2133 alters the percent of 3 bacterial species in the cecal content of mice on day 3.5 after PBI: Male C57BL/6J mice were exposed to 12 Gy PBI and administered GGTi-2133 (2.5 mg/kg) at 24 hours and 72 hours after irradiation. A sample of cecal content was aseptically collected 3.5 days after PBI. […] There were 8 mice in each group. […] GGTi-2133 increased the percentage of Akkermansia muciniphila in irradiated mice. The percentage of Turicibacter and Clostridium species were increased in PBI plus vehicle treated mice as compared to sham-irradiated vehicle-treated mice. The percentage of Turicibacter and Clostridium species were reduced in PBI plus GGTi-2133 treated mice compared to PBI plus vehicle treated mice.

[4] = system: BxPC-3 human pancreatic adenocarcinoma cell line; test: MTT assay of cell proliferation and metabolic rate; assay type: cell-based; details: 3 concentrations, once a day for 4 days, time-dependent and dose-dependent
Description: (§1) Human pancreatic cancer cell lines (PANC-1, BxPC-3, PSN-1) and a human prostate cancer cell line (LNCaP) were cultured in vitro at 37° C. and 5% CO2 and incubated with GGTi-2133 at 3 different concentrations. Cell proliferation and metabolic rate were measured with an MTT assay once a day for a total of 4 days. GGTi-2133 reduced the cell proliferation rate in all 4 cell lines in a dose-dependent manner. […] Finally, GGTi-2133 reduced the metabolic activity in LNCaP cells exposed to ionizing radiation.
(§2) FIG. 10F is a bar graph showing cell proliferation and metabolic rate in the LNCaP cell line were reduced to a greater extent after combined treatment with 2 Gy radiation plus GGTi-2133 treatment, in comparison to singular treatment with either 2 Gy radiation or GGTi-2133. Data are represented as mean+/−SD (n=4).

[5] = system: PANC-1 human pancreatic epithelioid carcinoma cell line; test: MTT assay of cell proliferation and metabolic rate; assay type: cell-based; details: 3 concentrations, once a day for 4 days, time-dependent and dose-dependent
Description: as §1, §2

[6] = system: PSN-1 human pancreatic cancer cell line; test: MTT assay of cell proliferation and metabolic rate; assay type: cell-based; details: 3 concentrations, once a day for 4 days, time-dependent and dose-dependent
Description: as §1, §2

PANC-1 cell line = test: Clonogenic assay (colony forming ability); assay type: cell-based, human; details: dose-dependent
PSN-1 cell line = test: Clonogenic assay (colony forming ability); assay type: cell-based, human; details: dose-dependent
[7] = system: LNCaP androgen-sensitive human prostate adenocarcinoma cell line; test: MTT assay of cell proliferation and metabolic rate, with or without 2 Gy radiation; assay type: cell-based
Description: as §1, §2

[8] = days 1-5 of each 21-day cycle; cited from earlier work
[9] = Safe dose in humans (scientific literature); assay type: in vivo, human; details: body surface conversion factor; 54 mg/kg in humans
Description: Based on scientific literature, it is understood that GGTi-2418 can be administered safely to humans in doses up to 2,060 mg/m^2 (54 mg/kg body weight) on days 1-5 of each 21-day cycle. By using a body surface conversion factor, 54 mg/kg in humans compares to 660 mg/kg in mice. In humans, GGTi can generally be administered in an effective amount with a dose escalation from about 200 mg/m^2 to 2060 mg/m^2 per day on days 1-5 of each 21-day cycle. In rats, the maximum tolerated dose for GGTi is 200 mg/kg for a single dosing or 150 mg/kg/day for 7 consecutive days. In addition to intraperitoneal administration, oral gavage, intravenous infusion, and subcutaneous administration are other acceptable modes of administration. While GGTi-298 and GGTi-2133 are the preferred GGTis in the method of the present invention, use of other GGTis are expected to show the same effects although the magnitude of the effects may not be as great.

[10] = 12 Gy PBI, 5 or 10 mg/kg body weight, vs vehicle
[11] = 12 Gy PBI, i.p. 1 or 2.5 mg/kg three times per week starting 24 h after PBI, 2 weeks, vs vehicle
[12] = 12 Gy PBI, i.p. 1 or 2.5 mg/kg, vs PBI plus vehicle

COC(=O)[C@H](CC(C)C)NC(=O)c1ccc(NC[C@@H](N)CS)cc1-c1cccc2ccccc12 [GGTi-298]
PBI-induced increase in crypt depth [1, 10]: attenuated | PBI-induced increase in crypt width [1, 10]: attenuated | PBI-induced reduction in villus height [1, 10]: attenuated

CC(C)C[C@H](NC(=O)c1ccc(NCc2cnc[nH]2)cc1-c1cccc2ccccc12)C(=O)O [GGTi-2133]
number of surviving crypts [2]: significantly (p=0.002) increased | percentage of Akkermansia muciniphila in cecal content ([3]; irradiated mice): increased | percentage of Clostridium species in cecal content ([3]; vs PBI plus vehicle): reduced | percentage of Turicibacter species in cecal content ([3]; vs PBI plus vehicle): reduced | OLFM4 (intestinal stem cell marker) staining ([1]; 2 weeks after 12 Gy γ-ray PBI, immunohistochemistry, 1 or 2.5 mg/kg): restored | PBI-induced body weight loss ([1]; 12 Gy PBI, 2.5 mg/kg body weight i.p., vs vehicle): significantly less | proliferating cell number in the crypts (PCNA and Ki-67) ([1]; 12 Gy PBI, 2.5 mg/kg body weight, vs PBI plus vehicle): significantly increased | PBI-induced decrease in mucosal surface area (MSA) [1, 11]: attenuated | PBI-induced increase in crypt depth [1, 11]: attenuated | PBI-induced increase in enterocyte length [1, 11]: attenuated | PBI-induced increase in enterocyte nuclear length [1, 11]: attenuated | PBI-induced reduction in villus height [1, 11]: attenuated | Alcian blue staining intensity of goblet cells [1, 12]: significantly enhanced | intraepithelial macrophage (CD68) number per villus [1, 12]: decrease | lymphocyte (CD3ε positive) number in the intestine [1, 12]: significant recovery | neutrophil (MPO positive) number in the intestine [1, 12]: significant recovery | number of mucus secreting goblet cells (Alcian blue) [1, 12]: elevated | stromal macrophage (CD68) number per villus [1, 12]: decrease | proliferation rate and metabolic activity (MTT) [4]: suppresses | proliferation rate and metabolic activity (MTT) [5]: suppresses | proliferation rate and metabolic activity (MTT) [6]: suppresses | colony forming ability (PANC-1 cell line): suppresses | colony forming ability (PSN-1 cell line): suppresses | proliferation rate and metabolic activity (MTT) ([7]; 3 concentrations, once a day for 4 days, time-dependent and dose-dependent): suppresses | radiation-induced decline in proliferation rate and metabolic activity ([7]; combined with 2 Gy radiation vs either treatment alone): enhances

Cc1nc[nH]c1CN1CCN(C(=O)N[C@@H](CC(C)C)C(=O)O)[C@@H](Cc2ccccc2)C1=O [GGTi-2418]
dose that can be administered safely to humans [8]: up to 2,060 mg/m^2 | dose that can be administered safely to humans, per body weight [8]: ≤ 54 mg/kg body weight | mouse equivalent of the safe human dose [9]: 660 mg/kg
